Results on 17 compounds are retold here after US20050222146A1, “N-substituted-n-sulfonylaminocyclopropane compounds and pharmaceutical use thereof” (priority 2003, published 2005).

For orientation: IC50 means the concentration that gives 50% inhibition.

Holding throughout (assay type): biochemical
One test deals with T1, aggrecanase-1 (Homo sapiens, UniProt O75173).
T1 sequence (O75173 213-837): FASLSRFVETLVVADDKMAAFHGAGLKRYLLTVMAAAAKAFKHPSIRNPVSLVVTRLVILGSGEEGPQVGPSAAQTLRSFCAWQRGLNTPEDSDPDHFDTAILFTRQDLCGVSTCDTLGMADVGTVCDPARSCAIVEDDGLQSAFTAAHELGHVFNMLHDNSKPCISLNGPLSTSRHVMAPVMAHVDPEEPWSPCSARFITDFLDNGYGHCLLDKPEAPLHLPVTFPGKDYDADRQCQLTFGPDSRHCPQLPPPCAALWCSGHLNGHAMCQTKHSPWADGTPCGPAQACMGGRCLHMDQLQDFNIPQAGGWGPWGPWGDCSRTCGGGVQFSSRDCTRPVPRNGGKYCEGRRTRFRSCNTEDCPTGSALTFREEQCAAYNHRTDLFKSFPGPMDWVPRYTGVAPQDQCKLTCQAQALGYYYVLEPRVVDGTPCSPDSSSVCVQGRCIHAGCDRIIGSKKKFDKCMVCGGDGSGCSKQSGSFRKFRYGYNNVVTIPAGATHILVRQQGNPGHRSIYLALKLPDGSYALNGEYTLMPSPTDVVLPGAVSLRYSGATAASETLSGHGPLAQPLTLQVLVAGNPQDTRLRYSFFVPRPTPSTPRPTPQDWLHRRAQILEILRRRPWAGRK
In words: Aggrecanase-1 inhibitory action, Particle Assay (GAG release from aggrecan-containing polyacrylamide particles). The following applies: 37° C. for 15 hr, read-out: Experimental Example 1 IC50 AG1. A digest of the protocol:
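IC50 (μM) derived from % inhibition, referenced to enzyme-free and inhibitor-free wells, of GAG release read as 1,9-dimethylmethylene blue absorbance at 595 nm (chondroitin sulfate standard). Substrate: aggrecan-bearing polyacrylamide particles, exposed to enzyme plus compound in Tris-HCl for 15 hr at 37 °C.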

A further test has as its target T2, MMP-1 (Homo sapiens, UniProt P03956).
T2 sequence (P03956 100-469): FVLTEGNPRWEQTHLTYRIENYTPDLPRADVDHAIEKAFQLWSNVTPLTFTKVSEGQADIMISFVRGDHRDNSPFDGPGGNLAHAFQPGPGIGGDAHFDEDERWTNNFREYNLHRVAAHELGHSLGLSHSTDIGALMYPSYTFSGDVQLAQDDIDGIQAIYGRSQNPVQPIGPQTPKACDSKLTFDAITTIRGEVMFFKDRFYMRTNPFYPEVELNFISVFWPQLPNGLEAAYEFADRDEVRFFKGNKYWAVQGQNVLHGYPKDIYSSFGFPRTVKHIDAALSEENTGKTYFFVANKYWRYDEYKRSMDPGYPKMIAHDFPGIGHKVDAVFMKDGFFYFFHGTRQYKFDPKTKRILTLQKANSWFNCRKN
In words: MMP-1 inhibitory action, Type I collagen Activity Measurement kit (FITC-labeled collagen type I). Conditions: 37° C. for 3 hr, read-out: Experimental Example 2 IC50 MMP1.

A further test deals with T3, Recombinant Human MMP-13 (Homo sapiens, UniProt P45452).
T3 construct: purchased R&D systems 511-MM
In words: MMP-13 inhibition, MMP-13 specific fluorescent substrate with quencher. The following applies: synthetic substrate 7-MCA-Pro-CHA-Gly-NVal-His-Ala-DPA, 25° C. for 1 h; read-out: Experimental Example 3 IC50 MMP13. The procedure: Inhibitory activity of tested compounds on MMP-13 was measured using MMP-13 specific fluorescent substrate with quencher.
The enzyme and substrate were diluted with Tris-HCl buffer, and test compounds were diluted with dimethyl sulfoxide (DMSO).
Test compounds and the enzyme (Recombinant Human MMP-13: R&D systems, 511-MM) were added into 96-well plate. The reaction was initiated by adding synthetic substrate (7-MCA-Pro-CHA-Gly-NVal-His-Ala-DPA: enzyme systems products, Met-06) into the plate. After incubation at 25° C. for 1 h, the reaction was terminated by addition of reaction terminating solution containing acetic acid. Fluorescence intensity of each well was measured (Ex: 325 nm, Em: 405 nm) and the MMP-13 inhibitory activity of the compound in each well (%) was calculated based on the values of enzyme-free well and inhibitor-free well. The inhibitory activity of the compound was represented as IC50 (μM).

In the case of `O=C(O)[C@@]12C[C@@]1(c1ccccc1)COCN2S(=O)(=O)c1ccc(-c2ccc(Cl)cc2)s1` (relative stereo) [Example 2-01, (1R*,6S*)-2-[5-(4-chlorophenyl)-thiophene-2-sulfonyl]-6-phenyl-4-oxa-2-aza-bicyclo[4.1.0]heptane-1-carboxylic acid], the IC50 at aggrecanase-1 was at least 1000 nM; on MMP-1, at least 10000 nM; on Recombinant Human MMP-13, at least 1000 nM.
As to `O=C(O)c1cnn(CCN([C@]2(C(=O)O)C[C@H]2c2ccccc2)S(=O)(=O)N2CCN(c3ccc(C(F)(F)F)cc3)CC2)c1` (relative stereo) [Example 2-05, 1-(2-{((1R*,2S*)-1-Carboxy-2-phenyl-cyclopropyl)-[4-(4-trifluoromethyl-phenyl)-piperazine-1-sulfonyl]-amino}-ethyl)-1H-pyrazole-4-carboxylic acid], the IC50 at aggrecanase-1 was below 1000 nM; at MMP-1, at least 10000 nM; on Recombinant Human MMP-13 it was at least 1000 nM.
As to `Nc1nnn(CCN([C@]2(C(=O)O)C[C@H]2c2ccccc2)S(=O)(=O)N2CCN(c3ccc(C(F)(F)F)cc3)CC2)n1` (relative stereo) [Example 2-06, (1R*,2S*)-1-{[2-(5-Amino-tetrazol-2-yl)-ethyl]-[4-(4-trifluoromethyl-phenyl)-piperazine-1-sulfonyl]-amino}-2-phenyl-cyclopropanecarboxylic acid], the IC50 was at least 1000 nM on aggrecanase-1, at least 10000 nM on MMP-1 and at least 10000 nM at Recombinant Human MMP-13.
In the case of `Nc1nnnn1CCN([C@]1(C(=O)O)C[C@H]1c1ccccc1)S(=O)(=O)N1CCN(c2ccc(C(F)(F)F)cc2)CC1` (relative stereo) [Example 2-07, (1R*,2S*)-1-{[2-(5-Amino-tetrazol-1-yl)-ethyl]-[4-(4-trifluoromethyl-phenyl)-piperazine-1-sulfonyl]-amino}-2-phenyl-cyclopropanecarboxylic acid], the IC50 was at least 1000 nM on aggrecanase-1, at least 10000 nM at MMP-1 and at least 10000 nM at Recombinant Human MMP-13.
Consider `O=C(O)[C@@]12C[C@]1(c1ccccc1)CCCN2S(=O)(=O)c1ccc(-c2ccc(Cl)cc2)s1` (relative stereo) [Example 2-13, (1R*,6S*)-2-[5-(4-Chloro-phenyl)-thiophene-2-sulfonyl]-6-phenyl-2-aza-bicyclo[4.1.0]heptane-1-carboxylic acid], for which the IC50 is below 1000 nM at aggrecanase-1, at least 10000 nM at MMP-1 and at least 1000 nM on Recombinant Human MMP-13.
`O=C(O)[C@@]12C[C@]1(c1ccccc1)CCCN2S(=O)(=O)c1ccc(-c2cc(C(F)(F)F)on2)s1` (relative stereo) [Example 2-22, (1R*,6S*)-6-Phenyl-2-[5-(5-trifluoromethyl-isoxazol-3-yl)-thiophene-2-sulfonyl]-2-aza-bicyclo[4.1.0]heptane-1-carboxylic acid]: the half-maximal inhibitory concentration (IC50) at aggrecanase-1 was at least 1000 nM; at MMP-1, at least 10000 nM; on Recombinant Human MMP-13, at least 1000 nM.
As to `O=C(O)[C@@]12C[C@]1(c1ccccc1)CCN2S(=O)(=O)c1ccc(-c2ccc(Cl)cc2)s1` (relative stereo) [Example 2-23, (1R*,5S*)-2-[5-(4-Chloro-phenyl)-thiophene-2-sulfonyl]-5-phenyl-2-aza-bicyclo[3.1.0]hexane-1-carboxylic acid], the IC50 on aggrecanase-1 was at least 1000 nM; at MMP-1, at least 10000 nM; on Recombinant Human MMP-13, at least 1000 nM.
As to `CN([C@]1(C(=O)O)C[C@@]1(CN1CCOCC1)c1ccccc1)S(=O)(=O)c1ccc(-c2cc(C(F)(F)F)on2)s1` (relative stereo) [Example 2-24, (1R*,2S*)-1-{Methyl-[5-(5-trifluoromethyl-isoxazol-3-yl)-thiophene-2-sulfonyl]-amino}-2-morpholin-4-ylmethyl-2-phenyl-cyclopropanecarboxylic acid], the IC50 is at least 1000 nM on aggrecanase-1, at least 10000 nM at MMP-1 and at least 10000 nM at Recombinant Human MMP-13.
In the case of `O=C(O)[C@@]12C[C@]1(c1ccccc1)COC(CO)CN2S(=O)(=O)c1ccc(-c2ccc(Cl)cc2)s1` (relative stereo) [Example 2-26, (1R*,7R*)-2-[5-(4-Chloro-phenyl)-thiophene-2-sulfonyl]-4-hydroxymethyl-7-phenyl-5-oxa-2-aza-bicyclo[5.1.0]octane-1-carboxylic acid], the half-maximal inhibitory concentration (IC50) on aggrecanase-1 was at least 1000 nM; at MMP-1, at least 10000 nM; on Recombinant Human MMP-13, at least 1000 nM.
As to `O=C(O)c1cc(CN(C2(C(=O)O)CC2c2ccccc2)S(=O)(=O)c2ccc(-c3ccc(Cl)cc3)cc2)on1` [Example 1-82, 5-{[((R, 2S*-1-carboxy-2-phenyl-cyclopropyl)-(4′-chloro-biphenyl-4-sulfonyl)-amino]-methyl}-isooxazole-3-carboxylic acid], the figures for the IC50 at aggrecanase-1 and at MMP-1 were below 1000 nM and at least 10000 nM, respectively.
With `O=C1NS(=O)(=O)N(CCN(C2(C(=O)O)CC2c2ccccc2)S(=O)(=O)c2ccc(-c3ccc(Cl)cc3)cc2)C1=O` (stereo not drawn) [Example 1-83, (1R*,2S*)-1-{(4′-chloro-biphenyl-4-sulfonyl)-[2-(1,1,3,4-tetraoxo-llambda*6*-[1,2,5]thiadiazolidin-2-yl)-ethyl]-amino}-2-phenyl-cyclopropanecarboxylic acid], the half-maximal inhibitory concentration (IC50) at aggrecanase-1 is below 100 nM; on MMP-1 it was at least 10000 nM.
The corresponding values for `NS(=O)(=O)NCCN(C1(C(=O)O)CC1c1ccccc1)S(=O)(=O)c1ccc(-c2ccc(Cl)cc2)cc1` (stereo not shown) [Example 1-84] are below 1000 nM and at least 10000 nM.
Taken in the same sequence, the figures for `O=C(O)c1cccc(CN(C2(C(=O)O)CC2c2cccc(OCCn3ccnc3)c2)S(=O)(=O)c2ccc(-c3ccc(Cl)cc3)cc2)c1` (stereo not drawn) [Example 1-95, 3-{[{(1R*,2S*-1-carboxy-2-[3-(2-imidazol-1-yl-ethoxy)-phenyl]-cyclopropyl}-(4′-chloro-biphenyl-4-sulfonyl)-amino]-methyl}-benzoic acid] were below 100 nM and at least 1000 nM.
Taken in the same sequence, the figures for `O=C(O)c1cccc(CN(C2(C(=O)O)CC2c2cccc(Oc3cccnc3)c2)S(=O)(=O)c2ccc(-c3ccc(Cl)cc3)cc2)c1` (stereo not drawn) [Example 1-102, 3-{[{(1R*,2S*-1-carboxy-2-[3-(pyridin-3-yloxy)-phenylcyclopropyl}-(4′-chloro-biphenyl-4-sulfonyl)-amino]-methyl}-benzoic acid] were below 100 nM and at least 10000 nM.
Regarding `O=C(O)C(=O)c1ccc(CN(C2(C(=O)O)CC2c2ccccc2)S(=O)(=O)c2ccc(-c3ccc(Cl)cc3)cc2)cc1` (stereo not drawn) [Example 1-103, (1R*,2S*)-1-[(4′-chloro-biphenyl-4-sulfonyl)-(4-oxalyl-benzyl)-amino]-2-phenyl-cyclopropanecarboxylic acid], the IC50 was below 100 nM at aggrecanase-1 and at least 10000 nM at MMP-1.
The corresponding values for `O=C(O)c1cn(CCN(C2(C(=O)O)CC2c2ccccc2)S(=O)(=O)c2ccc(-c3ccc(Cl)cc3)cc2)cn1` (stereo not drawn) [Example 1-104, 1-{2-[(1R*,2S*)-1-carboxy-2-phenyl-cyclopropyl)-(4′-chloro-biphenyl-4-sulfonyl)-amino]-ethyl}-1H-imidazole-4-carboxylic acid] are below 100 nM and at least 10000 nM.
Regarding `O=C(O)[C@@]1(N(CCN2CCOCC2)S(=O)(=O)c2ccc(-c3ccc(Cl)cc3)s2)C[C@H]1c1ccccc1` [Example 2-14, (1R,2S)-1-[[5-(4-Chloro-phenyl)-thiophene-2-sulfonyl]-(2-morpholin-4-yl-ethyl)-amino]-2-phenyl-cyclopropanecarboxylic acid], the IC50 is at least 1000 nM at aggrecanase-1 and at least 10000 nM at MMP-1.
